For experiment [1], the target named is T1, IRAK4 (Homo sapiens, UniProt Q9NWZ3).
T1 sequence (Q9NWZ3 1-460): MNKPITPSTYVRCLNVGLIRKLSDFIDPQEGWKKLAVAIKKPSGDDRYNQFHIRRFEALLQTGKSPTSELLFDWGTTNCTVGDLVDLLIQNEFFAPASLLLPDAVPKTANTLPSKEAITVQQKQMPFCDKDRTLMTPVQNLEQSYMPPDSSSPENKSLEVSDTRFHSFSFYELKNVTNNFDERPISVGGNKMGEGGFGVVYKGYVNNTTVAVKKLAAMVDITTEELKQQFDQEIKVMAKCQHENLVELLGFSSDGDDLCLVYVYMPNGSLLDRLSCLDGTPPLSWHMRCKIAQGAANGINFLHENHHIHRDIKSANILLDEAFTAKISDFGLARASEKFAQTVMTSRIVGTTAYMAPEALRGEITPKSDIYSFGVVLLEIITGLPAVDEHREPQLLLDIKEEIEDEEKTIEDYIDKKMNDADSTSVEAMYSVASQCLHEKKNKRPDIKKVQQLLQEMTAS
In words: ALE THP1 HTRF (IRAK4 HTRF in THP1 cell lysate, Cisbio HTRF kit). The class given is cell-based. Details: THP1 Homogeneous Time Resolved Fluorescence (ALE THP1 HTRF) Procedure; endogenous in cells; host or cells: THP1. The note with it: anti-IRAK4 d2 / anti-IRAK4 k antibodies. Here is the method:
Cell culture media was prepared in a tissue culture hood in a sterile environment by adding 10% FBS and 1% Penicillin Streptomycin to 500 mL no phenol red RPMI 1640 media. The media was filtered through a Nalgene Bottle Top Filter and stored at 4° C.
For Homogenous Time Resolved Fluorescence (HTRF) assays, a Cisbio HTRF kit was used, which included: Lysis Buffer #1 4×, Blocking Reagent #3 100×, 20× Antibody 1 (Anti-IRAK4 d2), 20× Antibody 2 (Anti-IRAK4 k), and Detection Buffer.
4× Lysis Buffer was stored at 4° C. For use as 1× Lysis buffer, the 4× solution was diluted with de-ionized water (distilled water, Gibco Cat. #15230279) and 100× Blocking Reagent in a 1:3:0.04 volume ratio.
20× Antibody Solution aliquots were stored at −80° C. and the Detection Buffer was stored at 4° C. For use as a 1× Antibody Solution, the 20× Antibody Solution aliquot was diluted with Detection Buffer in a 1:19 volume ratio.
Cells were lysed at room temperature for 45 min with shaking. A BCA protein assay was performed and normalization was conducted to the desired total protein concentration with 1× lysis buffer. Next, 1× Antibody Solutions were prepared by adding 380 μL Detection Buffer to 20 μL 20× Antibody Solution aliquots and mixing well. 1× Antibody Solutions were combined 1:1 and briefly vortexed. For control wells, 20 μL 1× anti IRAK4-k Antibody Solution was saved. The 384-well plate (ProxiPlate-384 Plus, Perkin Elmer Cat. #6008289) was loaded by adding 4 μL of the mixed Antibody Solution to empty wells using a single channel repeater. Using a multi-channel repeater, 16 μL lysate was added per well, and any bubbles that were formed were popped with 20 μL pipette tips and Kimwipe edges. In column 10, triplicates of each control were prepared. In wells A10, B10, and C10, buffer control was prepared by adding 16 μL Lysis Buffer and 4 μL Detection Buffer. In wells D10, E10, and F10, cryptate control was prepared by adding 16 μL Lysis Buffer, 2 μL Detection Buffer, and 2 μL 1× anti-IRAK4-k Antibody Solution. In wells G10, H10, and 110, a negative control was prepared by adding 16 μL Lysis Buffer and 4 μL mixed Antibody Solution. The plate was sealed with a clear seal and covered with an aluminum lid. The plate was spun down at 800 g for 5 min and incubated in the dark at room temperature overnight. The next day, the plate was spun down at 800 g for 5 min. The samples were analyzed by a plate reader (Envision, PerkinElmer) using the Desnor 384 HTRF program.
(In TR-FRET formats the signal depends on donor and acceptor labels being close together.)

The target of experiment [2] is T1, IRAK4. In words: IRAK4 PhosphoSens Biochemical Assay (BIOCHEM). Conditions: IRAK4 1 nM; ATP and Sox conjugated peptide substrate AQT0326; pH 7.5; room temperature; 240 minutes. Here is the method:
The PhosphoSens® biochemical assay was performed as described by the vendor (AssayQuant Technologies Inc. Marlborough, MA). A 1.25× stock solution of IRAK4 (PV4002, ThermoFisher Scientific, Waltham, MA) and a 5× stock solution of ATP and Sox conjugated peptide substrate, AQT0326 (CSKS-AQT0326B, AssayQuant Technologies), were prepared in 1× kinase reaction buffer consisting of 50 mM HEPES, pH 7.5, 0.01% Brij-35, 0.5 mM EGTA, 20 mM MgCl2 and 1 mM DTT. 10 μL of the ATP and substrate solution mix, for a final concentration of 200 µM ATP and […] peptide substrate, was added to a Corning 3574 384-well, white, non-binding surface microtiter plate containing 0.5 μL of serially diluted test compounds prepared in DMSO. The reactions were started with the addition of 40 μL of the enzyme solution, for a final IRAK4 concentration of 1 nM, and monitored every 71 seconds for 240 minutes at λEX 360/λEM 485 in a BioTek Synergy H4 plate reader (Agilent Technologies, Santa Clara, CA) at room temperature. The initial linear portions of the progress curves were fit according to a linear equation to yield the slopes and converted to % inhibition based on a value of 100% activity for the no inhibitor treated control. IC50 values of each compound were obtained by fitting the % inhibition-compound concentration curves using Dotmatics software (Dotmatics, Bishops Stortford, Hertfordshire, England),

From patent US20260327233A1, “Heteroaryl Compounds as Ligand Directed Degraders of IRAK4” (Celgene Corporation, priority 2023, published 2026) come the findings set out here.

For the compound `Cc1nn([C@H]2CC[C@H](C(=O)NC3CCN(c4ccc5c(c4)C(=O)N(C4CCC(=O)NC4=O)C5=O)CC3)CC2)cc1NC(=O)c1cnn2ccc(N3C[C@H](N)C[C@@H](F)C3)nc12` (stereo partly drawn) [Compound P-27, N-[1-[4-[[1-[2-(2,6-dioxo-3-piperidyl)-1,3-dioxo-isoindolin-5-yl]-4-piperidyl]carbamoyl]cyclohexyl]-3-methyl-pyrazol-4-yl]-5-[(3R,5R)-3-amino-5-fluoro-1-piperidyl]pyrazolo[1,5-a]pyrimidine-3-carboxamide hydroxhloride], on IRAK4 [1], the EC50 turned out to be 26 nM and the “ALE THP1 HTRF YMIN” value amounted to 24%. For the same compound, the IC50 on IRAK4 [2] is under 0.5 nM.

Regarding `CN(c1ccc2c(c1)CN(C1CCC(=O)NC1=O)C2=O)C1CCN(C[C@H]2CC[C@H](n3cc(NC(=O)c4cnn5ccc(N6C[C@H](N)C[C@@H](F)C6)nc45)c(C(F)F)n3)CC2)CC1` (stereo partly drawn) [Compound P-34], on IRAK4 [1], the midpoint of the response, the EC50, lay at 6 nM and the “ALE THP1 HTRF YMIN” value was 9%. Further, the IC50 at IRAK4 [2] is under 0.5 nM.

In the case of `N#Cc1nn(C2CCC(C(=O)NC3CCN(c4ccc5c(c4)C(=O)N(C4CCC(=O)NC4=O)C5=O)CC3)CC2)cc1NC(=O)c1cnn2ccc(N3CCNCC3)nc12` (stereo not drawn) [Compound P-3], on IRAK4 [1], the EC50 was over 10000 nM and the “ALE THP1 HTRF YMIN” value is 54%. Moreover, the IC50 at IRAK4 [2] worked out at 4.3 nM.

As for `N#Cc1nn(C2CCC(C(=O)N3CCN(c4ccc5c(c4)C(=O)N(C4CCC(=O)NC4=O)C5)CC3)CC2)cc1NC(=O)c1cnn2ccc(N3C[C@H](N)C[C@@H](F)C3)nc12` (stereo partly drawn) [Compound P-18], on IRAK4 [1], the 50% effective concentration (EC50) is over 10000 nM and the “ALE THP1 HTRF YMIN” value worked out at 69%. Moreover, the IC50 on IRAK4 [2] is under 0.5 nM.

As for `N#Cc1nn([C@H]2CC[C@H](CN3CCC(c4ccc5c(c4)C(=O)N(C4CCC(=O)NC4=O)C5)CC3)CC2)cc1NC(=O)c1cnn2ccc(N3CCNCC3)nc12` (stereo partly drawn) [Compound P-9], on IRAK4 [1], the EC50 is over 10000 nM and the “ALE THP1 HTRF YMIN” value was 78%. Also, the IC50 at IRAK4 [2] was 1.4 nM.

As to `N[C@@H]1C[C@@H](F)CN(c2ccn3ncc(C(=O)Nc4cn([C@H]5CC[C@H](C(=O)NC6CCN(c7ccc8c(c7)C(=O)N(C7CCC(=O)NC7=O)C8=O)CC6)CC5)nc4C(F)F)c3n2)C1` (stereo partly drawn) [Compound P-19], at IRAK4 [1], the EC50 came to 7 nM and the “ALE THP1 HTRF YMIN” value turned out to be 14%. Also, the IC50 on IRAK4 [2] is under 0.5 nM.

In the case of `N#Cc1nn([C@H]2CC[C@H](C(=O)N3CCN(c4ccc5c(c4)C(=O)N(C4CCC(=O)NC4=O)C5=O)CC3)CC2)cc1NC(=O)c1cnn2ccc(N3CCC[C@@H](N)C3)nc12` (stereo partly drawn) [Compound P-5], on IRAK4 [1], the EC50 was over 10000 nM and the “ALE THP1 HTRF YMIN” value is 60%. Moreover, the IC50 at IRAK4 [2] worked out at 0.5 nM.

Take `N[C@@H]1C[C@@H](F)CN(c2ccn3ncc(C(=O)Nc4cn([C@H]5CC[C@H](C(=O)N6CCN(c7ccc8c(c7)C(=O)N(C7CCC(=O)NC7=O)C8)CC6)CC5)nc4C(F)(F)F)c3n2)C1` (stereo partly drawn) [Compound P-22]: on IRAK4 [1], the response was half-maximal at 3 nM (EC50) and the “ALE THP1 HTRF YMIN” value turned out to be 27%. For the same compound, on IRAK4 [2], the IC50 is under 0.5 nM.

For `N#Cc1nn([C@H]2CC[C@H](CN3CCC(c4ccc5c(c4)C(=O)N(C4CCC(=O)NC4=O)C5=O)CC3)CC2)cc1NC(=O)c1cnn2ccc(N3CCNCC3)nc12` (stereo partly drawn) [Compound P-17], at IRAK4 [1], the concentration giving a half-maximal response (EC50) is over 10000 nM and the “ALE THP1 HTRF YMIN” value is given as over 95%. The IC50 on IRAK4 [2] was 1.2 nM.

As for `N#Cc1nn([C@H]2CC[C@H](C(=O)N3CCN(c4ccc5c(c4)CN(C4CCC(=O)NC4=O)C5=O)CC3)CC2)cc1NC(=O)c1cnn2ccc(N3CCNCC3)nc12` (stereo partly drawn) [Compound P-4], on IRAK4 [1], the EC50 was over 10000 nM and the “ALE THP1 HTRF YMIN” value is recorded as 94%. Further, the IC50 on IRAK4 [2] was 3.2 nM.

Usually EC50 stands for the concentration needed to bring the measured effect to its halfway point. Low readings indicate a more potent agent, high ones a less potent agent. In general, IC50 refers to the midpoint of a concentration-inhibition curve.
